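Step 1: Grow cells in 96-well plates. Step 2: Expose to compound for 48 hours at 5 concentrations. Step 3: Interpolate endpoints linearly; if unreached, use highest concentration. Here, GI50 denotes the concentration required for 50% inhibition of growth.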 Activity calls are given as the source filed them. Cut-off read from the data, not from the text of the source: active = GI50 up to about 1.1 µM and inactive = higher.
Legend:
Test in all cases: NCI tumour cell line growth inhibition, 48 h
A498 = test system: A498
ACHN = test system: ACHN
HCT-15 = test system: HCT-15
K562 = test system: K562
M14 = test system: M14
MOLT-4 = test system: MOLT-4
NCI-H23 = test system: NCI-H23
OVCAR-3 = test system: OVCAR-3
OVCAR-4 = test system: OVCAR-4
RPMI-8226 = test system: RPMI-8226
SF-539 = test system: SF-539
SK-MEL-28 = test system: SK-MEL-28
SK-MEL-5 = test system: SK-MEL-5
SN12C = test system: SN12C
SR = test system: SR
SW-620 = test system: SW-620
UACC-257 = test system: UACC-257
HCC 2998 = test system: HCC 2998
HL-60 = test system: HL-60

SMILES | GI50 (A498) | GI50 (ACHN) | GI50 (HCT-15) | GI50 (K562) | GI50 (M14) | GI50 (MOLT-4) | GI50 (NCI-H23) | GI50 (OVCAR-3) | GI50 (OVCAR-4) | GI50 (RPMI-8226) | GI50 (SF-539) | GI50 (SK-MEL-28) | GI50 (SK-MEL-5) | GI50 (SN12C) | GI50 (SR) | GI50 (SW-620) | GI50 (UACC-257) | GI50 (HCC 2998) | GI50 (HL-60)
COc1cc(OC)c2c(C)cc(=O)oc2c1 | 20.6 µM (inactive) | 36.7 µM (inactive) | 56.5 µM | 45 µM (inactive) | > 100 µM (inactive) | 82.6 µM (inactive) | 64.4 µM (inactive) | > 100 µM (inactive) | > 100 µM (inactive) | 44.6 µM (inactive) | 34.8 µM (inactive) | > 100 µM (inactive) | > 100 µM (inactive) | 72.6 µM (inactive) | 45.1 µM (inactive) | 54.5 µM (inactive) | 93.8 µM (inactive) |  | 
Cc1cc2nnn(C3CCCO3)c2cc1C (stereo unspecified) | > 100 µM (inactive) |  | > 100 µM | > 100 µM (inactive) | > 100 µM (inactive) | > 100 µM (inactive) | > 100 µM (inactive) | > 100 µM (inactive) |  |  | > 100 µM (inactive) |  | > 100 µM (inactive) | > 100 µM (inactive) | > 100 µM (inactive) |  | > 100 µM (inactive) | > 100 µM (inactive) | > 100 µM (inactive)
C[C@]12CC[C@H](O)C=C1CC[C@@H]1[C@@H]2CC[C@]2(C)C(=N/O)/C(=C/c3ccncc3)C[C@@H]12 |  | 8.43 µM (inactive) | 5.19 µM | 5.13 µM (inactive) | 5.7 µM (inactive) | 4.43 µM (inactive) | 16.1 µM (inactive) | 5.53 µM (inactive) | 10.1 µM (inactive) | 3.78 µM (inactive) | 5.53 µM (inactive) | 19.7 µM (inactive) | 5.01 µM (inactive) | 12.1 µM (inactive) | 3.4 µM (inactive) | 23 µM (inactive) | 7.67 µM (inactive) | 3.84 µM (inactive) | < 0.01 µM (active)
COc1cc2c(cc1OCc1ccccc1)NC(=O)[C@@H]1CCCN1C2=O | > 100 µM (inactive) | > 100 µM (inactive) | > 100 µM | > 100 µM (inactive) | > 100 µM (inactive) | > 100 µM (inactive) | > 100 µM (inactive) | > 100 µM (inactive) | > 100 µM (inactive) | > 100 µM (inactive) | > 100 µM (inactive) | > 100 µM (inactive) | > 100 µM (inactive) | > 100 µM (inactive) | > 100 µM (inactive) | > 100 µM (inactive) | > 100 µM (inactive) | > 100 µM (inactive) | 
CCOC(=O)CCC(NC(=O)Cc1ccc(Nc2nc3cc(F)c(F)cc3nc2C(=O)OCC)cc1)C(=O)OCC (stereo unspecified) | > 100 µM (inactive) | > 100 µM (inactive) | > 100 µM | 37.2 µM (inactive) | > 100 µM (inactive) | 44.6 µM (inactive) | > 100 µM (inactive) | > 100 µM (inactive) | > 100 µM (inactive) |  | > 100 µM (inactive) | > 100 µM (inactive) | > 100 µM (inactive) | 69.2 µM (inactive) | 27.5 µM (inactive) | 73.6 µM (inactive) | 28.6 µM (inactive) | > 100 µM (inactive) | 21.5 µM (inactive)
COc1cccc(CCCNC(=O)Cc2cc(OC)c(OC)cc2CO)c1 | > 100 µM (inactive) | > 100 µM (inactive) | > 100 µM | > 100 µM (inactive) | > 100 µM (inactive) | > 100 µM (inactive) | > 100 µM (inactive) | > 100 µM (inactive) | > 100 µM (inactive) |  |  | > 100 µM (inactive) | 83.2 µM (inactive) | > 100 µM (inactive) | > 100 µM (inactive) | > 100 µM (inactive) | > 100 µM (inactive) | > 100 µM (inactive) | > 100 µM (inactive)
CCc1nc2c(n1CC)C(=O)c1ccccc1C2=O |  | 39 µM (inactive) | 38.3 µM | 44.5 µM (inactive) | 23.7 µM (inactive) | 33.9 µM (inactive) | 46.8 µM (inactive) | 18.7 µM (inactive) | 34.9 µM (inactive) | > 100 µM (inactive) | 44.4 µM (inactive) | 56.1 µM (inactive) | > 10 µM (inactive) | 27.8 µM (inactive) | 37.4 µM (inactive) | 26.7 µM (inactive) | 25.4 µM (inactive) | 42.1 µM (inactive) | 32.7 µM (inactive)
C=CC1=C(C)c2cc3[nH]c(c4c5nc(cc6[nH]c(cc1n2)c(C=O)c6CC)C(C)=C5C(=O)[C@@H]4C(=O)OC)[C@@H](CCC(=O)O)[C@@H]3C | > 100 µM (inactive) | 46 µM (inactive) | 35.6 µM | 51.3 µM (inactive) | > 100 µM (inactive) | 43.6 µM (inactive) | 24.7 µM (inactive) |  | > 100 µM (inactive) |  | 39.6 µM (inactive) | > 100 µM (inactive) | 30.3 µM (inactive) | > 100 µM (inactive) | 10 µM (inactive) | 66.5 µM (inactive) | 83.9 µM (inactive) | > 100 µM (inactive) | 42.6 µM (inactive)
CCSC1=N/C(=C\c2ccco2)C(Cl)=N1 | > 100 µM (inactive) | > 100 µM (inactive) | > 100 µM | > 100 µM (inactive) | > 100 µM (inactive) | > 100 µM (inactive) | > 100 µM (inactive) | > 100 µM (inactive) |  | > 100 µM (inactive) | > 100 µM (inactive) | > 100 µM (inactive) | > 100 µM (inactive) | > 100 µM (inactive) | > 100 µM (inactive) | > 100 µM (inactive) | > 100 µM (inactive) |  | > 100 µM (inactive)
CCOC(=O)c1cn2c(n1)sc1cc(Cl)cc(Cl)c12 | > 100 µM (inactive) | > 100 µM (inactive) | > 100 µM | > 100 µM (inactive) | > 100 µM (inactive) | > 100 µM (inactive) | > 100 µM (inactive) | > 100 µM (inactive) | > 100 µM (inactive) | > 100 µM (inactive) | > 100 µM (inactive) | > 100 µM (inactive) | > 100 µM (inactive) | > 100 µM (inactive) | > 100 µM (inactive) | > 100 µM (inactive) | > 100 µM (inactive) | > 100 µM (inactive) | 
COc1ccc(CCc2ccc(O)c(C(=O)O)c2)cc1OC |  | > 100 µM (inactive) | 84.1 µM | 59.7 µM (inactive) | > 100 µM (inactive) | 59.2 µM (inactive) | > 100 µM (inactive) | > 100 µM (inactive) | > 100 µM (inactive) | > 100 µM (inactive) | 37.2 µM (inactive) | > 100 µM (inactive) | 98.9 µM (inactive) | > 100 µM (inactive) | > 100 µM (inactive) | > 10 µM (inactive) | > 100 µM (inactive) | > 100 µM (inactive) | > 100 µM (inactive)
O=C1CC(=O)NC(NN2C(=O)CSC2c2ccccc2)=N1 (stereo unspecified) | > 100 µM (inactive) | > 100 µM (inactive) | > 100 µM | > 100 µM (inactive) | > 100 µM (inactive) | > 100 µM (inactive) | > 100 µM (inactive) | > 100 µM (inactive) | > 100 µM (inactive) | > 100 µM (inactive) | > 100 µM (inactive) | > 100 µM (inactive) | > 100 µM (inactive) | > 100 µM (inactive) | > 100 µM (inactive) | > 100 µM (inactive) | > 100 µM (inactive) | > 100 µM (inactive) | 
COC(=O)C(C)(C)[C@@H]1OC(=O)N(S(=O)(=O)c2c(C)cc(C)cc2C)[C@H]1C(C)C |  | > 100 µM (inactive) | > 100 µM | > 100 µM (inactive) | 88.1 µM (inactive) | 40 µM (inactive) | 46.8 µM (inactive) | 89.9 µM (inactive) | 98.2 µM (inactive) | > 100 µM (inactive) | > 100 µM (inactive) | > 100 µM (inactive) | 41.8 µM (inactive) | > 100 µM (inactive) | 75.7 µM (inactive) | 82.2 µM (inactive) | 60.3 µM (inactive) | > 100 µM (inactive) | 23.6 µM (inactive)
COCC1OC(N2C(=O)NC(=O)[C@@H]3C=C4CCCCC4=C[C@@H]32)C(OC)C1OC (stereo partly specified) | > 100 µM (inactive) | > 100 µM (inactive) | > 100 µM | > 100 µM (inactive) | > 100 µM (inactive) | > 100 µM (inactive) |  | > 100 µM (inactive) | > 100 µM (inactive) | > 100 µM (inactive) | > 100 µM (inactive) | > 100 µM (inactive) |  | > 100 µM (inactive) | 19.1 µM (inactive) | > 100 µM (inactive) | > 100 µM (inactive) |  | 51.6 µM (inactive)
O=C1CCCCC/C1=C\c1cccc(Cl)c1 | > 100 µM (inactive) | 28.2 µM (inactive) | 32.2 µM |  | 32.4 µM (inactive) | 27.4 µM (inactive) | 42.9 µM (inactive) | 71.3 µM (inactive) | 26.5 µM (inactive) | 20 µM (inactive) |  | 49.4 µM (inactive) | 25.4 µM (inactive) | 93.8 µM (inactive) | 20.4 µM (inactive) | 20.8 µM (inactive) | 42.1 µM (inactive) | 41.7 µM (inactive) | 
Cc1cc2ccccc2c[n+]1CC(O)C[n+]1cc2ccccc2cc1C | > 100 µM (inactive) | > 100 µM (inactive) | > 100 µM | > 100 µM (inactive) | > 100 µM (inactive) | > 100 µM (inactive) | > 100 µM (inactive) | 51.6 µM (inactive) | > 100 µM (inactive) | > 100 µM (inactive) | > 100 µM (inactive) | > 100 µM (inactive) | > 100 µM (inactive) | > 100 µM (inactive) | > 100 µM (inactive) | > 100 µM (inactive) | > 100 µM (inactive) | > 100 µM (inactive) | 

— ChEMBL document CHEMBL1201862, “PubChem BioAssay data set” (2004)
